How the values were obtained:
[1] = target: C-X-C chemokine receptor type 4 (Homo sapiens, UniProt P61073, Q200A); test: (§1) Antagonist activity at human CXCR4 Q200A mutant expressed in COS7 cells coexpressing G protein Gqi4myr assessed as inhibition of CXCL12-induced phosphatidylinositol turnover; type: functional, cell-based, COS-7
[2] = tested on: C-X-C chemokine receptor type 4 (Homo sapiens), P61073 [Q200A]; test: as §1; type: functional, cell-based; conditions: COS-7
[3] = tested on: C-X-C chemokine receptor type 4 (Homo sapiens), P61073 [I284A]; test: (§2) Antagonist activity at human CXCR4 I284A mutant expressed in COS7 cells coexpressing G protein Gqi4myr assessed as inhibition of CXCL12-induced phosphatidylinositol turnover; type: functional, cell-based; conditions: COS-7
[4] = target: C-X-C chemokine receptor type 4 (Homo sapiens, UniProt P61073, I284A); test: as §2; type: functional, cell-based, COS-7
[5] = tested on: C-X-C chemokine receptor type 4 (Homo sapiens), P61073 [H281A]; test: (§3) Antagonist activity at human CXCR4 H281A mutant expressed in COS7 cells coexpressing G protein Gqi4myr assessed as inhibition of CXCL12-induced phosphatidylinositol turnover; type: functional, cell-based; conditions: COS-7
[6] = target: C-X-C chemokine receptor type 4 (Homo sapiens, UniProt P61073, H281A); test: as §3; type: functional, cell-based, COS-7
[7] = tested on: C-X-C chemokine receptor type 4 (Homo sapiens), P61073 [Y255A]; test: (§4) Antagonist activity at human CXCR4 Y255A mutant expressed in COS7 cells coexpressing G protein Gqi4myr assessed as inhibition of CXCL12-induced phosphatidylinositol turnover; type: functional, cell-based; conditions: COS-7
[8] = target: C-X-C chemokine receptor type 4 (Homo sapiens, UniProt P61073, Y255A); test: as §4; type: functional, cell-based, COS-7
[9] = tested on: C-X-C chemokine receptor type 4 (Homo sapiens), P61073 [L120F]; test: (§5) Antagonist activity at human CXCR4 L120F mutant expressed in COS7 cells coexpressing G protein Gqi4myr assessed as inhibition of CXCL12-induced phosphatidylinositol turnover; type: functional, cell-based; conditions: COS-7
[10] = target: C-X-C chemokine receptor type 4 (Homo sapiens, UniProt P61073, L120F); test: as §5; type: functional, cell-based, COS-7
[11] = tested on: C-X-C chemokine receptor type 4 (Homo sapiens), P61073 [D262N]; test: (§6) Antagonist activity at human CXCR4 D262N mutant expressed in COS7 cells coexpressing G protein Gqi4myr assessed as inhibition of CXCL12-induced phosphatidylinositol turnover; type: functional, cell-based; conditions: COS-7
[12] = target: C-X-C chemokine receptor type 4 (Homo sapiens, UniProt P61073, D262N); test: as §6; type: functional, cell-based, COS-7
[13] = tested on: C-X-C chemokine receptor type 4 (Homo sapiens), P61073 [V196A]; test: (§7) Antagonist activity at human CXCR4 V196A mutant expressed in COS7 cells coexpressing G protein Gqi4myr assessed as inhibition of CXCL12-induced phosphatidylinositol turnover; type: functional, cell-based; conditions: COS-7
[14] = target: C-X-C chemokine receptor type 4 (Homo sapiens, UniProt P61073, V196A); test: as §7; type: functional, cell-based, COS-7
[15] = tested on: C-X-C chemokine receptor type 4 (Homo sapiens), P61073 [T287A]; test: (§8) Antagonist activity at human CXCR4 T287A mutant expressed in COS7 cells coexpressing G protein Gqi4myr assessed as inhibition of CXCL12-induced phosphatidylinositol turnover; type: functional, cell-based; conditions: COS-7
[16] = target: C-X-C chemokine receptor type 4 (Homo sapiens, UniProt P61073, T287A); test: as §8; type: functional, cell-based, COS-7
[17] = target: C-X-C chemokine receptor type 4 (Homo sapiens, UniProt P61073); test: Antagonist activity at human wild type CXCR4 expressed in COS7 cells coexpressing G protein Gqi4myr assessed as inhibition of CXCL12-induced phosphatidylinositol turnover; type: functional, cell-based, COS-7
[18] = tested on: C-X-C chemokine receptor type 4 (Homo sapiens), P61073 [H203A]; test: (§9) Antagonist activity at human CXCR4 H203A mutant expressed in COS7 cells coexpressing G protein Gqi4myr assessed as inhibition of CXCL12-induced phosphatidylinositol turnover; type: functional, cell-based; conditions: COS-7
[19] = target: C-X-C chemokine receptor type 4 (Homo sapiens, UniProt P61073, H203A); test: as §9; type: functional, cell-based, COS-7
[20] = target: C-X-C chemokine receptor type 4 (Homo sapiens, UniProt P61073, I259W); test: (§10) Antagonist activity at human CXCR4 I259W mutant expressed in COS7 cells coexpressing G protein Gqi4myr assessed as inhibition of CXCL12-induced phosphatidylinositol turnover; type: functional, cell-based, COS-7
[21] = tested on: C-X-C chemokine receptor type 4 (Homo sapiens), P61073 [I259W]; test: as §10; type: functional, cell-based; conditions: COS-7
[22] = tested on: C-X-C chemokine receptor type 4 (Homo sapiens), P61073 [H113A]; test: (§11) Antagonist activity at human CXCR4 H113A mutant expressed in COS7 cells coexpressing G protein Gqi4myr assessed as inhibition of CXCL12-induced phosphatidylinositol turnover; type: functional, cell-based; conditions: COS-7
[23] = target: C-X-C chemokine receptor type 4 (Homo sapiens, UniProt P61073, H113A); test: as §11; type: functional, cell-based, COS-7
[24] = target: C-X-C chemokine receptor type 4 (Homo sapiens, UniProt P61073, E288A); test: (§12) Antagonist activity at human CXCR4 E288A mutant expressed in COS7 cells coexpressing G protein Gqi4myr assessed as inhibition of CXCL12-induced phosphatidylinositol turnover; type: functional, cell-based, COS-7
[25] = tested on: C-X-C chemokine receptor type 4 (Homo sapiens), P61073 [E288A]; test: as §12; type: functional, cell-based; conditions: COS-7
[26] = tested on: C-X-C chemokine receptor type 4 (Homo sapiens), P61073 [A175F]; test: (§13) Antagonist activity at human CXCR4 A175F mutant expressed in COS7 cells coexpressing G protein Gqi4myr assessed as inhibition of CXCL12-induced phosphatidylinositol turnover; type: functional, cell-based; conditions: COS-7
[27] = target: C-X-C chemokine receptor type 4 (Homo sapiens, UniProt P61073, A175F); test: as §13; type: functional, cell-based, COS-7
[28] = tested on: C-X-C chemokine receptor type 4 (Homo sapiens), P61073 [F172A]; test: (§14) Antagonist activity at human CXCR4 F172A mutant expressed in COS7 cells coexpressing G protein Gqi4myr assessed as inhibition of CXCL12-induced phosphatidylinositol turnover; type: functional, cell-based; conditions: COS-7
[29] = target: C-X-C chemokine receptor type 4 (Homo sapiens, UniProt P61073, F172A); test: as §14; type: functional, cell-based, COS-7
[30] = target: C-X-C chemokine receptor type 4 (Homo sapiens, UniProt P61073, Q200W); test: (§15) Antagonist activity at human CXCR4 Q200W mutant expressed in COS7 cells coexpressing G protein Gqi4myr assessed as inhibition of CXCL12-induced phosphatidylinositol turnover; type: functional, cell-based, COS-7
[31] = tested on: C-X-C chemokine receptor type 4 (Homo sapiens), P61073 [Q200W]; test: as §15; type: functional, cell-based; conditions: COS-7
[32] = target: C-X-C chemokine receptor type 4 (Homo sapiens, UniProt P61073, I259A); test: (§16) Antagonist activity at transmembrane domain 6 of human CXCR4 I259A mutant expressed in COS7 cells coexpressing G protein Gqi4myr assessed as inhibition of CXCL12-induced phosphatidylinositol turnover; type: functional, cell-based, COS-7
[33] = tested on: C-X-C chemokine receptor type 4 (Homo sapiens), P61073 [I259A]; test: as §16; type: functional, cell-based; conditions: COS-7
[34] = tested on: C-X-C chemokine receptor type 4 (Homo sapiens), P61073 [D171N]; test: (§17) Antagonist activity at human CXCR4 D171N mutant expressed in COS7 cells coexpressing G protein Gqi4myr assessed as inhibition of CXCL12-induced phosphatidylinositol turnover; type: functional, cell-based; conditions: COS-7
[35] = target: C-X-C chemokine receptor type 4 (Homo sapiens, UniProt P61073, D171N); test: as §17; type: functional, cell-based, COS-7

C-X-C chemokine receptor type 4 (Homo sapiens, UniProt P61073), sequence (P61073 whole entry): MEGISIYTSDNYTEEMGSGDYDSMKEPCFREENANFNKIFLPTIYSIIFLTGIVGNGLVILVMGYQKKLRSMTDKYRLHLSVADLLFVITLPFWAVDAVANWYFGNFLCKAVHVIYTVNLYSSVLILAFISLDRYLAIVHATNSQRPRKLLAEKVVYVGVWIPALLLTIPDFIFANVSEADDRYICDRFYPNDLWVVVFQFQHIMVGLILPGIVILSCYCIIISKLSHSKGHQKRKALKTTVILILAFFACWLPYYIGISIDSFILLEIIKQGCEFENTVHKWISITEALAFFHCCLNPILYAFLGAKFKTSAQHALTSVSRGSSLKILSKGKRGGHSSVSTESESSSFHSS
C-X-C chemokine receptor type 4 (Homo sapiens, UniProt P61073, H281A), sequence (P61073 whole entry H281A): as the sequence (P61073 whole entry) above, with H281A counted along it
C-X-C chemokine receptor type 4 (Homo sapiens), P61073 [H281A], sequence (P61073 whole entry H281A): as the sequence (P61073 whole entry) above, with H281A counted along it
C-X-C chemokine receptor type 4 (Homo sapiens), P61073 [V196A], sequence (P61073 whole entry V196A): as the sequence (P61073 whole entry) above, with V196A counted along it
C-X-C chemokine receptor type 4 (Homo sapiens, UniProt P61073, V196A), sequence (P61073 whole entry V196A): as the sequence (P61073 whole entry) above, with V196A counted along it
C-X-C chemokine receptor type 4 (Homo sapiens, UniProt P61073, I259W), sequence (P61073 whole entry I259W): as the sequence (P61073 whole entry) above, with I259W counted along it
C-X-C chemokine receptor type 4 (Homo sapiens), P61073 [I259W], sequence (P61073 whole entry I259W): as the sequence (P61073 whole entry) above, with I259W counted along it
C-X-C chemokine receptor type 4 (Homo sapiens), P61073 [H113A], sequence (P61073 whole entry H113A): as the sequence (P61073 whole entry) above, with H113A counted along it
C-X-C chemokine receptor type 4 (Homo sapiens, UniProt P61073, H113A), sequence (P61073 whole entry H113A): as the sequence (P61073 whole entry) above, with H113A counted along it
C-X-C chemokine receptor type 4 (Homo sapiens, UniProt P61073, I284A), sequence (P61073 whole entry I284A): as the sequence (P61073 whole entry) above, with I284A counted along it
C-X-C chemokine receptor type 4 (Homo sapiens), P61073 [I284A], sequence (P61073 whole entry I284A): as the sequence (P61073 whole entry) above, with I284A counted along it
C-X-C chemokine receptor type 4 (Homo sapiens), P61073 [H203A], sequence (P61073 whole entry H203A): as the sequence (P61073 whole entry) above, with H203A counted along it
C-X-C chemokine receptor type 4 (Homo sapiens, UniProt P61073, H203A), sequence (P61073 whole entry H203A): as the sequence (P61073 whole entry) above, with H203A counted along it

- Ki [1]: 80 µM
- logIC50 [2]: -4.1
- logIC50 [3]: -5.64
- Ki [4]: 2.3 µM
- logIC50 [5]: -4.66
- Ki [6]: 22 µM
- logIC50 [7]: -4.43
- Ki [8]: 37 µM
- logIC50 [9]: -4.87
- Ki [10]: 13 µM
- logIC50 [11]: -5.54
- Ki [12]: 2.9 µM
- logIC50 [13]: -4.56
- Ki [14]: 28 µM
- logIC50 [15]: -5.49
- Ki [16]: 3.3 µM
- Ki [17]: 20 µM
- logIC50 ([17]; COS-7): -4.69
- logIC50 [18]: -4.5
- Ki [19]: 32 µM
- Ki [20]: 24 µM
- logIC50 [21]: -4.62
- logIC50 [22]: -3.56
- Ki [23]: 275 µM
- Ki [24]: 303 µM
- logIC50 [25]: -3.52
- logIC50 [26]: -2.65
- Ki [27]: 2240 µM
- logIC50 [28]: -4.82
- Ki [29]: 15 µM
- Ki [30]: 60 µM
- logIC50 [31]: -4.22
- Ki [32]: 2.5 µM
- logIC50 [33]: -5.6
- logIC50 [34]: -3.97
- Ki [35]: 107 µM
Structure (SMILES): Cc1ccc(CN2CCCNCCNCCCNCC2)cc1
